≈ marks a conversion by molar mass, not a printed value. Where two headings read alike, the source gives them in different places.
How the values were obtained:
S. aureus (CCUG 62707) = assay: MIC of COD ligand and Pt precursor, S. aureus CCUG 62707; assay type: cell-based
E. coli (NCTC 13476) = assay: MIC, E. coli NCTC 13476 (with or without PMBN); assay type: cell-based
MSSA ATCC 29213 = assay: Broth microdilution MIC, MSSA ATCC 29213; assay type: cell-based, S. aureus; settings: Staphylococcus aureus
Description: The data is given in supporting information (Table S5). Before starting the experiment, a single colony was picked from MHA plate, inoculated in MHBII and incubated overnight at 37 °C with shaking for 18–24 h to get the starter culture. Antibiotic susceptibility testing was conducted according to the CLSI (Clinical & Laboratory Standards Institute) guidelines using the broth microdilution assay. 10 mg/mL stock solutions of test compounds were prepared in DMSO. Bacterial cultures were inoculated in MHBII and optical density (OD) was measured at 600 nm, followed by dilution to achieve ~10^6 CFU/mL. The compounds were tested from 64 to 0.5 mg/L in two-fold serial diluted fashion with 2.5 μL of each concentration added to well of a 96-well round bottom microtiter plate. Later, 97.5 μL of bacterial suspension was added to each well containing either test compound or appropriate controls. […] The MIC is defined as the lowest concentration of the compound at which there is absence of visible growth. For each test compound, MIC determinations were carried out independently three times using duplicate samples.

S. aureus ATCC 29213 [1] = assay: Drug interaction study (chequerboard assay); assay type: cell-based; settings: for MIC: Staphylococcus aureus, ATCC29213; for FIC B: antibiotic in combination with Pt1 / alone; for FIC (FICA+FICB) / Interference: combination with Pt1; for Interference: synergistic ≤0.5, indifferent >0.5 to 4, antagonistic >4
Description: All compounds were freshly prepared for the experiment. […] Following incubation, the fractional inhibitory concentration index (FICI) was calculated with the formula FICI = […], whereby FICA = MIC of drug A in combination/MIC of drug A alone and FICB = MIC of drug B in combination/MIC of drug B alone. A drug combination is considered synergistic when ∑FICI is ≤0.5, indifferent when ∑FICI is >0.5 to 4, and antagonistic when ∑FICI is >4.

[2] = test system: 36th Passage S.aureus ATCC 29213 in the presence of Pt-1; assay: microbe, parasite or virus in culture; assay type: cell-based; settings: Staphylococcus aureus, ATCC29213
Description: (§1) The MICs of the passaged cultures were determined every 3 days and compared to that of wild type S. aureus ATCC 29213. MIC changes were recorded for 36 passages.

B. subtilis 168CA = assay: ROS scavenger assay (modified MIC assay); assay type: cell-based, Bacillus subtilis
Description: LB media were prepared to contain either 10 mM tiron, 150 mM thiourea, 10 mM tiron and 150 mM thiourea, or no […]. Serial two-fold dilutions of the different antibiotics were prepared in the respective media and transferred to 96-well plates. […] The OD600 was meassured in a BMG Clariostar Plus plate reader.

[3] = test system: 36th Passage S.aureus ATCC 29213 in the presence of Levofloxacin; assay: Antibiogram of strain passaged with levofloxacin; assay type: cell-based; settings: Staphylococcus aureus, ATCC29213
Description: as §1

[4] = test system: methicillin-sensitive Staphylococcus aureus (MSSA), clinical isolate; assay: MIC assay, MSSA clinical isolate; assay type: cell-based; settings: MSSA clinical isolate
[5] = test system: methicillin-resistant S. aureus (MRSA) COL; assay: MIC assay, MRSA COL; assay type: cell-based, Staphylococcus aureus; settings: MRSA COL
Bacillus subtilis MW168 = assay: MIC assay, B. subtilis MW168; assay type: cell-based; settings: B. subtilis MW168
Escherichia coli W3110 = assay: MIC assay, E. coli; assay type: cell-based; settings: E. coli, Table S2
HEK293T cells = assay type: cell-based, Human
Description: The control for the experiments was DMSO. HEK293T cells were cultivated in DMEM high glucose supplemented with 10% heat-inactivated fetal bovine serum, 100 U/mL of penicillin and streptomycin and maintained at a temperature of 37 °C with 5% CO2. Initially, 4000/well of cells were seeded into 96-well plates and incubated for 24 h before being exposed to compounds at concentrations ranging from 0.78, 50, and 100 µM. After 24 h of incubation, the compounds were added and serially diluted and incubated for 24 and 48 h at 37 °C 5% CO2, the cells were stained with alamar Blue, and the fluorescence excitation/ emission 540 nm/590 nm was measured using 96 well-plate reader. CC50 is defined as the lowest concentration of compound which leads to a 50% reduction in cell viability compared to untreated and DMSO control. Each experiment was repeated in triplicate.

B. subtilis bSS82 = assay: Bacterial cytological profiling (BCP); assay type: cell-based, Bacillus subtilis
Description: To get an overview of the cellular effects of the compounds, we employed bacterial cytological profiling (BCP). To this end, we used a strain intracellularly expressing green-fluorescent protein (GFP) from the strong, constitutive PrpsD promoter (B. subtilis bSS82[37]), stained with the membrane dye Nile red and the DNA dye DAPI. Combined with phase contrast microscopy, this setup allows simultaneous assessment of cell morphology, cell lysis, pore formation, membrane morphology, and nucleoid morphology in one assay.
BCP was performed according to Wenzel et al.[71]. In short, B. subtilis strain […] (PrpsD-gfp) was grown to an OD600 of 0.3 prior to splitting of parent cultures and addition of antibiotics. Samples were taken for microscopy after 30, 60, and 120 min of antibiotic treatment. Five minutes prior to sampling, cultures were stained with 0.5 µg/mL Nile red and 1 µg/mL DAPI for 5 min. Samples of 0.5 µL were then spotted onto 1% agarose slides[45] and images were taken immediately.
Cell length and DAPI intensity were analyzed using MicrobeJ[73]. To this end, the fit shape, rod-shaped setting was used with a minimum area of 0.5 µm, while all other settings remained at default. B. subtilis chains were seperated based on the membrane stain. Membrane stress was counted using the ObjectJ plugin[74], using the membrane setting to seperate individual cells in chains. Membrane damage was expressed as ratio of cells with visible Nile red foci and total detected cells. DNA compaction was analyzed by determining the area of the DNA and the whole cell are using advanced weka segmentation. Cells were segmented according to the GFP signal. […] Cells that were out of focus or lysed were excluded from the analysis. Statistical analysis was peformed using GraphPad Prism 10 as specified in the individual figure legends.

[6] = test system: RecA-GFP (B. subtilis UG10); assay: Localization of RecA-GFP (DNA damage reporter); assay type: cell-based, Bacillus subtilis; settings: Pt1 3.125 µM, Pt8 25 µM, CisPt 100 µM; strongest after 10 min
Description: To confirm whether the compounds induce DNA damage in bacterial cells, the localization of RecA was assessed. RecA is part of the bacterial SOS response to DNA damage. It is a DNA-associated protein that recognizes single-stranded DNA, which occurs as a consequence of strand breaks. If strand breaks are present, RecA accumulates at the damaged sites, appearing as foci or elongated structures. Since the RecA response is strongest shortly after stress induction, we additionally examined a 10 min timepoint in this assay.
B. subtilis strains were grown in LB containing appropriate inducer concentrations as specified in Table S10. After reaching an OD600 of 0.3, cultures were split and treated with antibiotics. Samples were withdrawn after 30 and 60 min of treatment, spotted on glass slides covered with 1% agarose films, and immediately imaged.

S. aureus ATCC 29213 [7] = assay: Post antibiotic effect (PAE); assay type: cell-based; settings: for Time for 1 log10 increase in bacterial cfu count: 1 h exposure
Description: Post antibiotic effect (PAE) was determined as follows. […] Following incubation, cultures were centrifuged and washed twice with pre-warmed MHBII to remove any traces of antibiotics. Finally, cells were resuspended in drug-free MHBII and incubated further at 37 °C. Samples were taken every 1 h, serially diluted, and plated on tryptic soy agar (TSA) for enumeration of CFU. […] CFU observed immediately after the removal of the drug, and C in a similarly treated drug-free control.

[8] = compound alone, Table S8, read-out: MIC
[9] = S.aureus ATCC 29213 (unpassaged), Table S9, read-out: MIC
[10] = 60 min, Pt1 3.125 µM, Pt8 25 µM, CisPt 100 µM

Structure (SMILES)	MIC (S. aureus ATCC 29213 [1]; [8]) [µg/mL]	FIC B (S. aureus ATCC 29213 [1])	FIC (FICA+FICB) (S. aureus ATCC 29213 [1])	Interference (S. aureus ATCC 29213 [1])	MIC [2] [µg/mL]	MIC (MSSA ATCC 29213; [9]) [µg/mL]	also measured
C1=CCCC=CCC1 [1,5-Cyclooctadiene, 1,5-cyclooctadiene]							MIC (S. aureus (CCUG 62707); Staphylococcus aureus, CCUG62707): > 200 µM; MIC (E. coli (NCTC 13476); Escherichia coli, NCTC13476): > 200 µM
CO[C@H]1/C=C/O[C@@]2(C)Oc3c(C)c(O)c4c(O)c(c(/C=N/N5CCN(C)CC5)c(O)c4c3C2=O)NC(=O)/C(C)=C\C=C\[C@H](C)[C@H](O)[C@@H](C)[C@@H](O)[C@@H](C)[C@H](OC(C)=O)[C@@H]1C [Rifampicin]	0.0078	1	2	no interaction	0.0156 (≈ 0.019 µM)		MIC (MSSA ATCC 29213): 0.0156 µg/mL (≈ 0.019 µM)
OO [hydrogen peroxide]							MIC fold change (increase) with scavenger (B. subtilis 168CA; medium containing 10 mM tiron (superoxide scavenger)): not significantly affected; MIC fold change (increase) with scavenger (B. subtilis 168CA; medium containing 150 mM thiourea (hydroxyl radical scavenger)): 14 fold; MIC fold change (increase) with scavengers (B. subtilis 168CA; medium containing both tiron and thiourea): no additive effect
C[C@@H](O)[C@H]1C(=O)N2C(C(=O)O)=C(S[C@@H]3CN[C@H](C(=O)N(C)C)C3)[C@H](C)[C@H]12 [Meropenem]	0.25	1	2	no interaction	0.25 (≈ 0.652 µM)	0.25 (≈ 0.652 µM)	MIC [3]: 0.125 µg/mL (≈ 0.326 µM)
[Cl][Pt-2]([Cl])([Cl])[Cl].[K+].[K+] [Pt K2PtCl4, K2PtCl4]							MIC (S. aureus (CCUG 62707); S. aureus CCUG 62707): > 200 µM; MIC (E. coli (NCTC 13476); E. coli NCTC 13476): > 200 µM
CC(=O)NC[C@H]1CN(c2ccc(N3CCOCC3)c(F)c2)C(=O)O1 [Linezolid]	2	1	2	no interaction	2 (≈ 5.93 µM)	2 (≈ 5.93 µM)	
N.N.O=C([O-])C1(C(=O)[O-])CCC1.[Pt+2] [Carboplatin]							MIC [4]: > 100 µM; MIC [5]: > 100 µM; MIC (Bacillus subtilis MW168): > 100 µM; MIC (Escherichia coli W3110): > 100 µM
CCCCCCCCCC(=O)N[C@@H](Cc1c[nH]c2ccccc12)C(=O)N[C@H](CC(N)=O)C(=O)N[C@@H](CC(=O)O)C(=O)N[C@@H]1C(=O)NCC(=O)N[C@@H](CCCN)C(=O)N[C@@H](CC(=O)O)C(=O)N[C@H](C)C(=O)N[C@@H](CC(=O)O)C(=O)NCC(=O)N[C@H](CO)C(=O)N[C@@H]([C@H](C)CC(=O)O)C(=O)N[C@@H](CC(=O)c2ccccc2N)C(=O)O[C@@H]1C [Daptomycin]	1	1	2	no interaction	1 (≈ 0.617 µM)	1 (≈ 0.617 µM)	
N.N.[Cl][Pt][Cl] [CisPt, cisplatin]							MIC [4]: >100 µM; MIC [5]: >100 µM; MIC (Bacillus subtilis MW168): >100 µM; IC50 (HEK293T cells; 24 h): 81.6 ± 5.1 µM; IC50 (HEK293T cells; 48 h): 22 ± 3.4 µM; DAPI fluorescence intensity (B. subtilis bSS82; [10]): significant reduction of the DAPI signal; nucleoid compaction (cell area vs DAPI-stained nucleoid area) (B. subtilis bSS82; [10]): clear nucleoid compaction; growth and cell length phenotype (B. subtilis bSS82; B. subtilis, 100 µM): slight growth defects and a mild cell elongation phenotype; RecA accumulation on nucleoids [6]: clear RecA accumulations
C[C@H]1COc2c(N3CCN(C)CC3)c(F)cc3c(=O)c(C(=O)O)cn1c23 [Levofloxacin]	0.25	1	2	no interaction	0.25 (≈ 0.692 µM)	0.25 (≈ 0.692 µM)	MIC [3]: 32 µg/mL (≈ 88.6 µM); PAE (S. aureus ATCC 29213 [7]; 1x MIC): ~ 0.5 h; Time for 1 log10 increase in bacterial cfu count (S. aureus ATCC 29213 [7]; 1x MIC): ~ 3 h; PAE (S. aureus ATCC 29213 [7]; 5x MIC): ~ 1.5 h; Time for 1 log10 increase in bacterial cfu count (S. aureus ATCC 29213 [7]; 5x MIC): ~ 4 h; PAE (S. aureus ATCC 29213 [7]; 10x MIC): ~ 1.5 h; Time for 1 log10 increase in bacterial cfu count (S. aureus ATCC 29213 [7]; 10x MIC): ~ 4 h; PAE (S. aureus ATCC 29213 [7]; 10x MIC, listed as levofloxacin): 1.5 h
CNC(C)C1CCC(N)C(OC2C(N)CC(N)C(OC3OCC(C)(O)C(NC)C3O)C2O)O1 (stereo not drawn) [Gentamicin]	0.25	1	2	no interaction	0.5 (≈ 1.05 µM)	0.25 (≈ 0.523 µM)	
O=C1[O][Pt]2([NH][C@@H]3CCCC[C@H]3[NH]2)[O]C1=O [Oxaliplatin]							MIC [4]: > 100 µM; MIC [5]: > 100 µM; MIC (Bacillus subtilis MW168): > 100 µM; MIC (Escherichia coli W3110): > 100 µM
CC(C)(O/N=C(\C(=O)N[C@@H]1C(=O)N2C(C(=O)[O-])=C(C[n+]3ccccc3)CS[C@H]12)c1csc(N)n1)C(=O)O [Ceftazidime]	16	1	2	no interaction	16 (≈ 29.3 µM)	16 (≈ 29.3 µM)	
CN(C)c1ccc(O)c2c1C[C@H]1C[C@H]3[C@H](N(C)C)C(O)=C(C(N)=O)C(=O)[C@@]3(O)C(O)=C1C2=O [Minocycline]		1	2	no interaction	0.125 (≈ 0.273 µM)		MIC (MSSA ATCC 29213): 0.0625 µg/mL (≈ 0.137 µM); MIC (S. aureus ATCC 29213 [1]): 0.125 µg/mL
